Values quoted from earlier work, collected in patent US10350288B2, “Methods and compositions for treating herpes” (Genocea Biosciences, Inc., priority 2016, dated 2019).
Where two headings read alike, the source gives them in different places. Each block holds one molecule with its values, some of them ahead of it.

Legend:
[1] = test system: HSV; conditions: once-daily; efficacy comparable to valacyclovir twice daily for 3 days
[2] = test system: HSV-2
[3] = test system: HSV-2; conditions: human, in vivo
[4] = test system: HSV; conditions: patients with genital herpes

SMILES: Cc1cccc(C)c1N(CC(=O)Nc1ccc(-c2ncon2)cc1)C(=O)C1CCS(=O)(=O)CC1 [amenamevir]
- time to lesion healing shortened by [1]: 1 to 2 days

- oral bioavailability: not orally bioavailable
SMILES: Nc1nc2c(ncn2CCC(CO)CO)c(=O)[nH]1 [Penciclovir, penciclovir]

SMILES: CC(C)[C@H](N)C(=O)OCCOCn1cnc2c(=O)[nH]c(N)nc21 [valacyclovir]
- proportion of patients who remained recurrence-free ([2]; at 6 months, placebo 7%): 55%
- proportion of patients who remained recurrence-free ([2]; at 12 months, placebo 4%): 34%
- reduction of transmission of HSV-2 from infected persons to uninfected partners [3]: 48%

SMILES: Cc1nc(N(C)C(=O)Cc2ccc(-c3ccccn3)cc2)sc1S(N)(=O)=O [Pritelivir, pritelivir]
- reduction of viral shedding and lesion rate [4]: has shown efficacy
